Reference: patent publication US9346820B2, “HIV-1 protease inhibitors having gem-di-fluoro bicyclic P2-ligands” (priority 2013, dated 2016)
Like-named read-outs stand apart in the source and are kept apart here.

Columns and labels:
HIV-1NL4-3 [1] = assay: p24 Gag production inhibition in MT-4 cells, wild-type laboratory strain; assay type: cell-based
Protocol: The susceptibility of HIV-1LAI to various drugs was determined as previously described with minor modifications. Briefly, MT-2 cells (10^4/ml) were exposed to 100 50% tissue culture infectious doses (TCID50) of HIV-1LAI in the presence or absence of various concentrations of drugs in 96-well microculture plates and were incubated at 37° C. for 7 days. After 100 μl of the medium was removed from each well, 3-(4,5-dimetylthiazol-2-yl)-2,5-diphenyltetrazolium bromide (MTT) solution (10 μl, 7.5 mg/ml in phosphate-buffered saline) was added to each well in the plate, followed by incubation at 37° C. for 2 h. […] All assays were performed in duplicate or triplicate. […] To determine the sensitivity of primary HIV-1 isolates to drugs, phytohemagglutinin-stimulated peripheral blood mononuclear cells (PHA-PBMC) (10^6/ml) were exposed to 50 TCID50 of each primary HIV-1 isolate and cultured in the presence or absence of various concentrations of drugs in 10-fold serial dilutions in 96-well microculture plates. In determining the drug susceptibility of certain laboratory HIV-1 strains, MT-4 cells were employed as target cells as previously described with minor modifications. In brief, MT-4 cells (10^5/ml) were exposed to 100 TCID50 of drug-resistant HIV-1 strains in the presence or absence of various concentrations of drugs and were incubated at 37° C. On day 7 of culture, the supernatants were harvested and the amounts of p24 Gag protein were determined by using a fully automated chemiluminescent enzyme immunoassay system (Lumipulse F: Fujirebio Inc., Tokyo). […] All assays were performed in duplicate or triplicate. PHA-PBMs were derived from a single donor in each independent experiment. Thus, for obtaining the data, three different donors were recruited.

[2] = system: multi-drug-resistant clinical HIV-1 variants; assay: p24 assay in PHA-PBMs, the six multi-drug-resistant clinical variants taken together; assay type: cell-based; conditions: Human immunodeficiency virus 1, read-out: EC50 values against clinical multi-drug-resistant variants
Protocol: The susceptibility of HIV-1LAI to various drugs was determined as previously described with minor modifications. Briefly, MT-2 cells (10^4/ml) were exposed to 100 50% tissue culture infectious doses (TCID50) of HIV-1LAI in the presence or absence of various concentrations of drugs in 96-well microculture plates and were incubated at 37° C. for 7 days. After 100 μl of the medium was removed from each well, 3-(4,5-dimetylthiazol-2-yl)-2,5-diphenyltetrazolium bromide (MTT) solution (10 μl, 7.5 mg/ml in phosphate-buffered saline) was added to each well in the plate, followed by incubation at 37° C. for 2 h. […] All assays were performed in duplicate or triplicate. […] To determine the sensitivity of primary HIV-1 isolates to drugs, phytohemagglutinin-stimulated peripheral blood mononuclear cells (PHA-PBMC) (10^6/ml) were exposed to 50 TCID50 of each primary HIV-1 isolate and cultured in the presence or absence of various concentrations of drugs in 10-fold serial dilutions in 96-well microculture plates. In determining the drug susceptibility of certain laboratory HIV-1 strains, MT-4 cells were employed as target cells as previously described with minor modifications. […] On day 7 of culture, the supernatants were harvested and the amounts of p24 Gag protein were determined by using a fully automated chemiluminescent enzyme immunoassay system (Lumipulse F: Fujirebio Inc., Tokyo). […]

[3] = system: variants selected with DRV over 10 and 20 passages; assay: Antiviral activity against DRV-resistant variants selected over 10 and 20 passages; assay type: cell-based, HIV-1; conditions: Human immunodeficiency virus 1, read-out: EC50 against variants selected with DRV over 10 and 20 passages
HIV-1NL4-3 [4] = assay: In vitro selection of PI-resistant HIV-1 variants in MT-4 cells with sequencing of the protease-encoding region; assay type: cell-based
Description: MT-4 cells ([…]) were exposed to HIV-1NL4-3 (500 TCID50) and cultured in the presence of various PIs at an initial concentration of its EC50 value. Viral replication was monitored by the determination of the amount of p24 Gag produced by MT-4 cells. The culture supernatants were harvested on day 7 and used to infect fresh MT-4 cells for the next round of culture in the presence of increasing concentrations of each drug. When the virus began to propagate in the presence of the drug, the drug concentration was increased generally 2- to 3-fold. Proviral DNA samples obtained from the lysates of infected cells were subjected to nucleotide sequencing. This drug selection procedure was carried out until the drug concentration reached 5 μM (31-33). In the experiments for selecting drug-resistant variants, MT-4 cells were exploited as target cells since HIV-1 in general replicates at greater levels in MT-4 cells than in MT-2 cells.
Molecular cloning and determination of the nucleotide sequences of HIV-1 strains passaged in the presence of anti-HIV-1 agents were performed as described previously (31). In brief, high molecular-weight DNA was extracted from HIV-1-infected MT-4 cells by using the InstaGene Matrix (Bio-Rad Laboratories, Hercules, Calif.) and was subjected to molecular cloning, followed by sequence determination. The primers used for the first round of PCR with the entire Gag- and protease-encoding regions of the HIV-1 genome were LTR F1 (5′-GATGCTACATATAAGCAGCTGC-3′; SEQ ID NO: 13) and PR12 (5′-CTCGTGACAAATTTCTACTAATGC-3′; SEQ ID NO: 14). The first-round PCR mixture consisted of 1 μl of proviral DNA solution, 10 μl of Premix Taq (Ex Taq Version; Takara Bio Inc., Otsu, Japan), and 10 pmol of each of the first PCR primers in a total volume of 20 μl. The PCR conditions used were an initial 3 min at 95° C., followed by 35 cycles of 40 sec at 95° C., 20 sec at 55° C., and 2 min at 72° C., with a final 10 min of extension at 72° C. The first-round PCR products (1 μl) were used directly in the second round of PCR with primers LTR F2 (5′-GAGACTCTGGTAACTAGAGATC-3′; SEQ ID NO: 15) and Ksma2.1 (5′-CCATCCCGGGCTTTAATTTTACTGGTAC-3′; SEQ ID NO: 16) under the PCR conditions of an initial 3 min at 95° C., followed by 35 cycles of 30 sec at 95° C., 20 sec at 55° C., and 2 min at 72° C., with a final 10 min of extension at 72° C. The second-round PCR products were purified with spin columns (MicroSpin S-400 HR columns; Amersham Biosciences Corp., Piscataway, N.J.), cloned directly, and subjected to sequencing with a model 3130 automated DNA sequencer (Applied Biosystems, Foster City, Calif.).

HIV-1ERS104pre = assay: Antiviral activity of brain-side medium from the BBB assay, p24 assay in PHA-PBMs; assay type: cell-based; conditions: PHA-activated PBMCs
Protocol: The “brain-side” of the medium containing a compound collected in the BBB in vitro assay, was subjected to antiviral assays. Two HIV-1 isolates were employed, HIV-1LAI (Panel A) and HIV-1ERS104pre (Panel B). […] Dilution ranges were between 10-fold and 10,000-fold, and the percentage of viral inhibition was used as an endpoint. […] Assays were conducted in duplicate and error bars show standard deviations.
The assay was carried out using 10, 100, 1000 and 10000 times-diluted brain-side stocks of compounds.

[5] = Human immunodeficiency virus 1, MT4, read-out: EC50 HIV-1NL4-3
[6] = Human immunodeficiency virus 1, MT4, MT-4 cells, p24 Gag endpoint, read-out: EC50 HIV-1NL4-3

## CC(C)CN(C[C@@H](O)[C@H](Cc1ccccc1)NC(=O)O[C@H]1CO[C@H]2OCC[C@H]21)S(=O)(=O)c1ccc(N)cc1 [DRV, darunavir]
HIV-1NL4-3 [1]; [5]
  EC50: 4 nM

## COC(=O)N[C@H](C(=O)N[C@@H](Cc1ccccc1)[C@@H](O)CN(Cc1ccc(-c2ccccn2)cc1)NC(=O)[C@@H](NC(=O)OC)C(C)(C)C)C(C)(C)C [ATV, Atazanavir]
HIV-1NL4-3 [1]; [5]
  EC50: 4.7 nM

## COc1ccc(S(=O)(=O)N(CC(C)C)C[C@@H](O)[C@H](Cc2ccccc2)NC(=O)OC2CO[C@H]3OCC(F)(F)[C@@H]23)cc1 (stereo partly drawn) [GRL-04810]
[2]
  EC50: 2 to 21 nM
HIV-1NL4-3 [1]; [6]
  EC50: 0.5 nM
[3]
  EC50: 30 to 34 nM
HIV-1NL4-3 [4]; 25 passages, initial concentration 0.003 μM, MT-4 cells
  concentration in the presence of which HIV-1NL4-3 had acquired an ability to replicate: 0.080 µM
HIV-1NL4-3 [4]; 25 passages, relative to initial concentration 0.003 μM
  fold-increased concentration tolerated by selected virus: 26 fold
HIV-1ERS104pre
  antiviral profile of brain-side preparations (FIG. 5B): virtually the same antiviral profiles

## CC(C)CN(C[C@@H](O)[C@H](Cc1ccccc1)NC(=O)O[C@H]1CO[C@H]2OCC(F)(F)[C@H]21)S(=O)(=O)c1ccc(N)cc1 [GRL-05010]
[2]
  EC50: 2 to 21 nM
HIV-1NL4-3 [1]; [6]
  EC50: 3.7 nM
[3]
  EC50: 26 to 43 nM
HIV-1NL4-3 [4]; by passage 15
  amino acid substitutions in the protease-encoding region of selected HIV-1NL4-3: M46I and I50V by passage 15 in all 24 clones examined, while N38K was detected in 8 of 24 clones and M36I in 3 clones
HIV-1NL4-3 [4]; by passage 15, starting at 0.003 μM, MT-4 cells
  concentration in the presence of which HIV-1NL4-3 attained an ability to replicate: 0.037 µM
HIV-1ERS104pre
  antiviral profile of brain-side preparations (FIG. 5B): virtually the same antiviral profiles

## CC(C)(C)NC(=O)[C@@H]1C[C@@H]2CCCC[C@@H]2CN1C[C@@H](O)[C@H](Cc1ccccc1)NC(=O)[C@H](CC(N)=O)NC(=O)c1ccc2ccccc2n1 [SQV, Saquinavir]
HIV-1NL4-3 [1]; [5]
  EC50: 37 nM
